These results are taken from article PMC12249915, “Development of a Cyclodextrin-Based Drug Delivery System to Improve the Physicochemical Properties of Ceftobiprole as a Model Antibiotic” (International Journal of Molecular Sciences, 2025).

Converted amounts (≈) assume the structure as drawn. “And” between values parts separate entries of the source, which are not always exact repeats. Identical values can stand only once. Like-named read-outs stand apart in the source and are kept apart here.

Data set [1] is described as follows: pH of solutions before freeze-drying and after reconstitution. Format: physicochemical.
A short description of data set [2]: DOSY NMR study of complex formation with SBE-β-CD. The class given is physicochemical. As to conditions: for diffusion coefficient D: DOSY, D2O, 25 °C, ceftobiprole/maleic acid 1:25 without SBE-β-CD at 7.5 mM ceftobiprole. The source says:
Another approach to investigate the complex formation using NMR is the use of Diffusion-Ordered SpectroscopY (DOSY). Based on chemical shifts, each individual signal can be assigned to a proper species present in the analysed sample solution, thus allowing us to determine its diffusion coefficient D . The value of D depends on the hydrodynamic radius r of the analysed species, temperature T , and on the dynamic viscosity η of the solution:(1) D=kBT/6π η r
Here, kB stands for the Boltzmann constant. The solutions used for the DOSY measurements should be appropriately diluted to avoid the viscosity-related issues. Moreover, to properly compare the DOSY spectra between the samples with and without SBE-β-CD, it must be checked whether the viscosities of these two samples are similar.
It is a generally accepted practice to approximate that D is the same for the CD in a complex and for free CD. Assuming a quick exchange regime, to calculate the molar fraction MFCB of ceftobiprole molecules being complexed in relation to all ceftobiprole molecules in the studied solution, one can take advantage of the equation stating that DCB−CD is the weighted average of DCB and DCD :(2) DCB−CD=MFCBDCB+(1−MFCB)DCD
The complexation equilibrium is dynamic, and can be interpreted as a statistical ceftobiprole molecule spending MFCB proportion of time in a complex, and (1−MFCB) fraction of time alone, resulting in overall DCB−CD being the weighted average.
In these studies, 16 increments consisting of 64 scans were performed. A relaxation time of 2 s, a diffusion time of 200 ms, a total diffusion encoding gradient duration of 2 ms, and 16 values of the diffusion encoding gradient incremented from 3 to 25 G/cm were applied. Processing was carried out using the OpenVnmrJ 3.1A software with the option of correction for spatially non-uniform pulsed field gradients.

On the set-up of data set [3]: method as in PMID 38068968. As to conditions: theoretical calculations, depending on the software used; cited from earlier work.
Data set [4] is described as follows: Solubility of ceftobiprole determined by HPLC. The class given is physicochemical. As to the method:
The samples were stored in a freezer, taking into account the recommended storage conditions for ceftobiprole. The stability of the prepared samples was tested at defined intervals using the same methodology. To evaluate potential changes in solubility due to physical transformations such as phase transitions or recrystallization, an identical volume of water was added as in the initial solubility test. Subsequently, the reconstituted samples were analysed by HPLC to determine the precise solubility and to monitor any increase in the concentration of DPs content, thereby assessing both physical and chemical stability.
The LC-MS/MS experiments were performed using the same equipment and methodology as described in [14], with one modification: to acquire a full mass spectrum of SBE-β-CD, the range of detected m/z was broadened to 2500.

For data set [5] the following is noted: cited from earlier work.

Turning to `O=C(O)CC(O)(CC(=O)O)C(=O)O` [citric acid], the “pH of the solution intended for freeze-drying” value is listed as 2.9 in data set [1] (20-fold molar excess of citric acid in relation to ceftobiprole), 2.7 in data set [1] (50-fold molar excess of citric acid in relation to ceftobiprole) and 2.5 in data set [1] (100-fold molar excess of citric acid in relation to ceftobiprole).

For the compound `O=C(O)/C=C\C(=O)O` [maleic acid], the “diffusion coefficient D” value in data set [2] was 7.11 × 10^−10 m^2/s.

Broadly, the solubility is the concentration that dissolves in the medium under given conditions. Consider `Nc1nc(/C(=N/O)C(=O)N[C@@H]2C(=O)N3C(C(=O)O)=C(/C=C4\CCN([C@@H]5CCNC5)C4=O)CS[C@H]23)ns1` [ceftobiprole], for which the “pKa of the carboxyl group of ceftobiprole” value in data set [3] was 3.0 and 3.2. Also, the “diffusion coefficient D” value in data set [2] is on record as “≈ 3.16 × 10^−10 m^2/s”. For the same compound, the “molar fraction MFCB of ceftobiprole molecules being complexed” value in data set [2] (cCB = 1.917 mM, cCD = 7.667 mM) is “≈ 0.35”. The “molar fraction MFCB” value is reported as 0.845 in data set [2] (calculated for cCB = 22.5 mM, cCD = 90 mM (1:25:4), K = 77 M^−1) and 0.693 in data set [2] (calculated for molar ratio 1:25:2, cCD = 45 mM). Further, in data set [2] (semi-quantitative, from DOSY), the “equilibrium constant K of complex with SBE-β-CD” value turned out to be 77 M⁻¹. Besides, the “ceftobiprole molecules in the complex with SBE-β-CD” value in data set [2] (solution near saturation, 1:25:4) stood at 85%. In addition, the solubility was roughly 100 µg/mL (≈ 187 µM) in data set [4] (0.1 M aqueous formic acid (HCOOH), solubility of ceftobiprole before use of 0.1 M formic acid and SBE-β-CD); 2100 µg/mL (≈ 3930 µM) in data set [4] (water, freeze-dried analogue without SBE-β-CD, reconstituted in water, read-out: Solubility of Ceftobiprole for Freeze-Dried Samples in a Preliminary Study Without SBE-β-CD); 120 µg/mL (≈ 224 µM) in data set [4] (water, freeze-dried from water without acid, read-out: solubility after freeze-drying of pure aqueous solutions); 50 µg/mL (≈ 93.5 µM) in data set [4] (water, without freeze-drying in acidic environment, read-out: water solubility of ceftobiprole). For the same compound, the “fold higher solubility after freeze-drying in 0.1 M HCOOH” value in data set [4] (freeze-dried (2.1 mg/mL) vs unprocessed in 0.1 M HCOOH ([…])) was found to be 15 fold. In addition, the “pH of the dissolved sample” value in data set [1] (freeze-dried in 0.1 M HCOOH without SBE-β-CD) is “approximately 5”. The t90 entry in data set [5] (0.01 M NaOH) was “≈ 10 min”; in data set [5] (3% H2O2) it was “≈ 25 min”; in data set [5] (UV irradiation at 366 nm), “≈ 1 h”. In data set [5] (0.1 M HCl at room temperature), the “t90 (time for 10% decrease in initial concentration)” value is given as “approximately 22 h”. The “decrease of degradation rate constant in the presence of 10 mM SBE-β-CD” value in data set [5] (acidic degradation in 0.1 M HCl at 25 °C) and in data set [5] (thermal degradation in water at 45 °C) was 2.5 fold throughout.
